Tested on: PANC-1 pancreatic cancer cells
Test: FACS cell cycle profile of PANC-1 cells
Format: cell-based, human
Details: PANC-1, 5.5 mM sugar, 48 h
Method: FIG. 15 depicts in the G0/G1 phase and the DNA synthesis (S) phase of pancreatic cells in glucose and fructose in accordance with an embodiment of the present invention. PANC-1 cells were plated in 2, and 5.5 mM glucose or 5.5 mM fructose for 48 h, after which cells were fixed in methanol, nuclei were stained with propidium iodide, and aliquots subjected to FACS analyzes.
This first result intrigued the inventors, but given there is little documentation regarding physiological fructose concentrations, the inventors first considered that the “apparent” pro-proliferative effects of fructose were simply a consequence of the highly stylized in vitro experimental conditions, and that if the pancreatic cancer cells were cultured in higher glucose concentrations, this would result in similar proliferative rates to those the inventors observed following culture in 5.5 mM fructose. Therefore, in the next experiments, the inventors compared proliferative rates of the PANC-1 pancreatic cancer cells following culture for 72 h in a range of fructose, and glucose concentrations (2-25 mM). This timepoint was chosen as the inventors had seen maximal pancreatic cancer cell proliferation in 5.5 mM fructose at 72 h. […] While not wishing to be bound by any particular theory, the inventors believe that this latter finding may be because the PANC-1 cells are proliferating at close to maximal capacity by 72 h, once they are exposed to comparatively low fructose concentrations (5 mM). MTS assay was employed to measure pancreatic cancer cell proliferative rates, which utilizes mitochondrial oxidation to quantify cell proliferation. As the inventors were examining carbohydrate-mediated effects, the inventors considered the change observed in proliferative rates, as measured by this assay, simply reflected changes in mitochondrial oxidation. Therefore, two additional methods were utilized to examine proliferative rates following fructose-treatment. […]

O=C(CO)[C@@H](O)[C@H](O)[C@H](O)CO [fructose]
increase of cells in S-phase in comparison to 2 mM glucose: ~17%
percentage of cells in S-phase: 47%
percentage of cells in resting G0/G1: 21.2%

Source: patent US20090232735A1, “USE OF FRUCTOSE-BASED THERAPIES FOR THE TREATMENT OF CANCER” (CEDARS-SINAI MEDICAL CENTER, priority 2005, published 2009)
